Data as given in patent publication US7015249B1, “Methods and compositions for treating diabetes” (Purdue Research Foundation, priority 1997, dated 2006).

How the values were obtained:
Type in all cases: cell-based
full length mouse PPARα = biological target: T1, full length mouse PPARα (Mus musculus, UniProt P23204); assay: Full length PPARα PPRE-luciferase reporter assay in CV-1 cells; conditions: 100 μM, six hours
T1 construct: constructs including full length mouse PPARα, PPARβ or PPARγ and a luciferase reporter gene; expressed in transfected cells; host or cells: CV-1 (African green monkey kidney cells)
T1 sequence (P23204 1-468): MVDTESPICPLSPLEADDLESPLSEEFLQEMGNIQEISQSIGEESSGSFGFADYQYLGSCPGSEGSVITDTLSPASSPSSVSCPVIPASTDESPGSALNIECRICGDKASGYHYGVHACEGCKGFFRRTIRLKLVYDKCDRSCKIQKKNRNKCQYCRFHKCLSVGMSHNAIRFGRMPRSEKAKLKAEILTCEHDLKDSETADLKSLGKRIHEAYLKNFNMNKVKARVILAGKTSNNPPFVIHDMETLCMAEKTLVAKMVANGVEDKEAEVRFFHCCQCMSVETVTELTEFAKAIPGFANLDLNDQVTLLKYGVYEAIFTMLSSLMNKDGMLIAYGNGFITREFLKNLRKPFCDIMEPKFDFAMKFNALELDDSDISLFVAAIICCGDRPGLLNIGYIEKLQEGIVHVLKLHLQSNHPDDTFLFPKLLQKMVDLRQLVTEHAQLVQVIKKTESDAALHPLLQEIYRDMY
Experimental: (§1) The data in FIGS. 5–7 was generated utilizing constructs including full length mouse PPARα, PPARβ or PPARγ and a luciferase reporter gene. The CV-1 cell line (African green monkey kidney cells) used was obtained from American Type Culture Collection (#CCL-70). The cells were grown in Eagle minimal essential medium containing 10% fetal bovine serum (GIBCO). For each transfection involving PPARα, 625 ng pcDNA3-PPARα expression vector was used along with 250 ng of psV-GL-2-PPRE-luciferase reporter plasmid and 250 ng of pSV-β-galactosidase internal control plasmid. For each transfection involving PPARβ or PPARγ, either 625 ng pSG5-mouse-PPARβ or 625 ng pSG5-mouse-PPARγ was used along with 250 ng of the psV-GL2-PPRE-luciferase reporter plasmid and 250 ng of pSV-β-galactosidase internal control plasmid. Cells were transfected using Lipofect AMINE™ reagent (GIBCO) and phenol red-free, serum free medium (OptiMEM®I, GIBCO Life Technologies, Grand Island, N.Y.). Seven hours post-transfection, charcoal stripped serum (Cocalico Biologicals, Inc. Reamstown, Pa.) was added to the media (10% final concentration) for an overnight incubation (16 hours). […] The data were quantified relative to luciferase/β-galactosidase activity expressed as a ratio to vehicle-treated cells (0.1% DMSO).

full length mouse PPARβ = biological target: T2, full length mouse PPARβ (Mus musculus, UniProt P35396); assay: Full length PPARβ PPRE-luciferase reporter assay in CV-1 cells; conditions: 100 μM
T2 construct: constructs including full length mouse PPARα, PPARβ or PPARγ and a luciferase reporter gene; expressed in transfected cells; host or cells: CV-1 (African green monkey kidney cells)
T2 sequence (P35396 1-440): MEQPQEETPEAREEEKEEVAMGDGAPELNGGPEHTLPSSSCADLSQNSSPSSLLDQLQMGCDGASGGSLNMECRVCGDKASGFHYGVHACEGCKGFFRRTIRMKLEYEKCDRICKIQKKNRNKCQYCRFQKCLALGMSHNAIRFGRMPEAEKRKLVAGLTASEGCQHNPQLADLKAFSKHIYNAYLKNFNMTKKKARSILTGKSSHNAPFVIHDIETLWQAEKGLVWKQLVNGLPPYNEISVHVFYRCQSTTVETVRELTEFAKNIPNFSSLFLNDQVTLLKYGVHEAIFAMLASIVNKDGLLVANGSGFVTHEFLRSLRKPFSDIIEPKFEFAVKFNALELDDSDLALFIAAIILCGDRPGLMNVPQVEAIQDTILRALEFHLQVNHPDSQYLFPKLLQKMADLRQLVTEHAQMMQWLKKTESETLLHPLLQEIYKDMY
Experimental: as §1

full length mouse PPARγ = biological target: T3, full length mouse PPARγ (Mus musculus, UniProt P37238); assay: Full length PPARγ PPRE-luciferase reporter assay in CV-1 cells; conditions: 100 μM, six hours
T3 construct: constructs including full length mouse PPARα, PPARβ or PPARγ and a luciferase reporter gene; expressed in transfected cells; host or cells: CV-1 (African green monkey kidney cells)
T3 sequence (P37238 1-505): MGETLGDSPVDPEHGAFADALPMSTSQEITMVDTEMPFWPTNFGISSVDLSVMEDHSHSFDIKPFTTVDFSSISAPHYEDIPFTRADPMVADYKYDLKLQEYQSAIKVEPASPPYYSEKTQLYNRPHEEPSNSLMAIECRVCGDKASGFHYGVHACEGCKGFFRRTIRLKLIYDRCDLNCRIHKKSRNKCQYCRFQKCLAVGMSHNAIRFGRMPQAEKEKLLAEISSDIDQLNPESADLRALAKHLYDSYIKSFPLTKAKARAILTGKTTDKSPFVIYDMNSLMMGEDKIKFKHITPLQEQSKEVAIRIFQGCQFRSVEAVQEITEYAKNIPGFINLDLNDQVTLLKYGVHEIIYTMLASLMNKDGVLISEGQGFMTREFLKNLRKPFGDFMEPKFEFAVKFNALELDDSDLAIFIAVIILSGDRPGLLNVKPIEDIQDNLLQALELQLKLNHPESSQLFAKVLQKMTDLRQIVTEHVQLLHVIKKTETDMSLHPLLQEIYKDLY
Experimental: as §1

[1] = biological target: T4, ligand binding domain of mouse PPARβ (Mus musculus, UniProt P35396); assay: GAL4-PPARβ chimera / (UAS)5-tk-CAT reporter transfection assay in COS-1 cells; conditions: 100 μM in DMSO
T4 construct: expressed in transfected cells; host or cells: COS-1
T4 sequence (P35396 210-438 limits assumed): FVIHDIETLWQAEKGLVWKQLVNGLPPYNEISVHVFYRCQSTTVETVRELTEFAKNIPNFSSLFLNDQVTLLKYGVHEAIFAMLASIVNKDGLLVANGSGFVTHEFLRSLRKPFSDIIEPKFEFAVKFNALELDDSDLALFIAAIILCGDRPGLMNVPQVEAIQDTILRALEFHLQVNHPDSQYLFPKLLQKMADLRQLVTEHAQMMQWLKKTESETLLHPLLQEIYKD
Experimental: (§2) COS-1 cells (American Type Culture Collection) were maintained in α-minimal essential media (Sigma) supplemented with 8% fetal calf serum (Gibco BRL), 0.2 mg/ml streptomycin and 200 U/ml penicillin. The pSG5-GAL4-PPAR chimera expression constructs, containing the ligand binding domain of mouse PPARα, β or γ, as well as the (UAS)5-tk-CAT reporter construct were kindly provided by Steven A. Kliewer (Glaxo Research Institute). At 75–90% confluence, COS-1 cells were co-transfected with GAL4-PPAR, (UAS)5-tk-CAT, and pSV-βGal (Promega) as described in Lehmann, J. M. et al., J. Biol. Chem. 270, 12953–12956 (1995). Twenty-four hours after transfection, the cells were treated with the indicated amounts of CLA, or a single 100 μM dose of 4-chloro-6-(2,3-xylindino)-2-pyrimidinylthio)-acetic acid (Wy 14,643; a hypolipidemic drug known as a peroxisome proliferator). After 6 hours of treatment, the cells were harvested and chloramphenicol acetyltransferase levels were assessed by ELISA (Gibco BRL) according to the manufacturer's instructions. Data is expressed relative to β-galactosidase activity. CLA used in this experiment was obtained from a commercially available mixture from NuChek Prep, Elysian Minn. The mixture contained about 41.2% by weight of a composition including cis,trans-9,11-octadecadienoic acid and trans,cis-9,11-octadecadienoic acid, about 44% by weight trans,cis-10,12-octadecadienoic acid, about 9.4% by weight cis,cis-10,12-octadecadienoic acid, about 1.3% by weight of a composition including trans,trans-9,11-octadecadienoic acid and trans,trans-10,12-octadecadienoic acid, about 1.1% by weight cis,cis-9,11-octadecadienoic acid, about 0.7% by weight linoleic acid and about 2.2% of other lipids as mentioned above.
In this example, certain PPAR subtypes are shown to be activated by CLA isomers. However, a 100 μM concentration of selected isomers of CLA were also utilized in the transfection assay to determine whether specific isomers of CLA could activate any of the PPAR subtypes.

[2] = biological target: T5, ligand binding domain of mouse PPARα (Mus musculus, UniProt P23204); assay: GAL4-PPARα chimera / (UAS)5-tk-CAT reporter transfection assay in COS-1 cells; conditions: 100 μM in DMSO
T5 construct: expressed in transfected cells; host or cells: COS-1
T5 sequence (P23204 239-466 limits assumed): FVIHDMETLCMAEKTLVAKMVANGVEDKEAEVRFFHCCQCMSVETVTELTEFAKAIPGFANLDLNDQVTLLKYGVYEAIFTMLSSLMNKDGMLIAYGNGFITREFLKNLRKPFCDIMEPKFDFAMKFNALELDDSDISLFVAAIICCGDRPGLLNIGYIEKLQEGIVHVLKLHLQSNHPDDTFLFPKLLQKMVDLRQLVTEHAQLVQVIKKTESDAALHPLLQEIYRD
Experimental: as §2, with “The mixture contained about 41.2% by weight of a composition including cis,trans-9,11-octadecadienoic acid and trans,cis-9,11-octadecadienoic acid, about 44% by weight trans,cis-10,12-octadecadienoic acid, about 9.4% by weight cis,cis-10,12-octadecadienoic acid, about 1.3% by weight of a composition including trans,trans-9,11-octadecadienoic acid and trans,trans-10,12-octadecadienoic acid, about 1.1% by weight cis,cis-9,11-octadecadienoic acid, about 0.7% by weight linoleic acid and about 2.2% of other lipids as mentioned above.” left out

[3] = listed as trans,cis-10,12-octadecadienoic acid

| activation of full length PPARα vs DMSO control / CLA mixture (FIG. 5) (full length mouse PPARα; [3]) | activation of full length PPARβ vs DMSO control / CLA mixture (FIG. 6) (full length mouse PPARβ; [3]) | activation of full length PPARγ vs DMSO control (FIG. 7) (full length mouse PPARγ) | activation of PPARβ, compared with CLA mixture (FIG. 4) [1] | activation of PPARα, compared with CLA mixture (FIG. 4) [2] | SMILES | activation of full length PPARα vs DMSO control / CLA mixture (FIG. 5) (full length mouse PPARα) | activation of full length PPARβ vs DMSO control / CLA mixture (FIG. 6) (full length mouse PPARβ) |
| --- | --- | --- | --- | --- | --- | --- | --- |
| activate | activate | activate | – | – | CCCCC/C=C\C=C\CCCCCCCCC(=O)O [trans,cis-10,12 CLA isomer, trans,cis-10,12-octadecadienoic acid] | significantly more than the CLA mixture alone | significantly more than the CLA mixture alone |
| – | – | – | more than CLA mixture alone | – | CCCCCC/C=C/C=C/CCCCCCCC(=O)O [9E11E, trans,trans-9,11-octadecadienoic acid] | – | – |
| – | – | – | more than the CLA mixture | more than the CLA mixture | CCCCCC/C=C\C=C/CCCCCCCC(=O)O [9Z11Z, cis,cis-9,11-octadecadienoic acid] | – | – |
| – | – | – | more than the CLA mixture | more than the CLA mixture | CCCCCC/C=C/C=C\CCCCCCCC(=O)O [9Z11E, cis,trans-9,11-octadecadienoic acid] | – | – |
